Experimental data published in patent publication US10047105B2, “Gyrase inhibitors” (Merck Sharp & Dohme Corp., priority 2009, dated 2018).
Converted amounts (≈) assume the structure as drawn.

How the values were obtained:
Format in all cases: cell-based
[1] = system: E. coli 8 ATCC 25922; test: MIC, E. coli 8 (wt); settings: E. coli 8 (EC8)
[2] = system: S. pneumoniae ATCC 51916; test: MIC, S. pneumoniae; settings: S. pneumoniae (Spn52); in µg/mL
[3] = system: S. aureus ATCC 13709; test: MIC, antibacterial potency, S. aureus; settings: S. aureus (SA); in µg/mL

Row | Structure (SMILES) | MIC EC8 [1] [µg/mL] | MIC Spn52 [2] | MIC, SA [3]
1 | CCc1[nH]c2nc(Oc3cncc(C#N)c3)nc(N3CC[C@@H](NC(C)=O)C3)c2c1Cl [700,999] | > 64 | 2 | 2
2 | CCc1[nH]c2nc(Oc3ccc4nccnc4c3)nc(N3CC[C@@H](N)C3)c2c1Cl [701,000] | 64 (≈ 156 µM) | 8 | 4
3 | CCc1[nH]c2nc(Oc3ccc4nccnc4c3)nc(N3CC[C@@H](NC(C)=O)C3)c2c1Cl [701,001] | > 64 | 8 | 4
4 | CCc1[nH]c2nc(Sc3cnc4cccnc4c3)nc(N3CCNCCNCC3)c2c1Cl [701,003] | > 64 | 32 | >64
5 | CCc1[nH]c2nc(Sc3ccc4nccnc4c3)nc(N3C[C@@H]4C(N)[C@@H]4C3)c2c1Cl (stereo partly drawn) [701,006] | > 64 | <=0.5 | <=0.5
6 | CCc1[nH]c2nc(Oc3ccc4nccnc4c3)nc(Oc3ccc4ncn(C)c4c3)c2c1Cl [701,007] | > 64 | 2 | <=0.5
7 | CCc1[nH]c2nc(Sc3ccc4cc(C#N)c[n+]([O-])c4c3)nc(N3CC4C(N)C4C3)c2c1Cl (stereo not drawn) [701,010] | > 16 | 1 | <=0.5
8 | CCc1[nH]c2nc(Oc3ccc4nccnc4c3)nc(N3CC4C(C3)C4NC(C)=O)c2c1Cl (stereo not drawn) [701,012] | > 64 | 2 | 1
9 | CCc1[nH]c2nc(Sc3ccc4nc(N5CC(N)C5)cnc4c3)nc(N3C[C@@H]4C(N)[C@@H]4C3)c2c1Cl (stereo partly drawn) [701,013] | 16 (≈ 31.5 µM) | 2 | 1
10 | CCc1[nH]c2nc(Sc3cnc4cccnc4c3)nc(N3C[C@H](N)[C@H](C(=O)NCC(O)CO)C3)c2c1Cl (stereo partly drawn) [701,019] | > 32 | >32 | >32
11 | CCc1[nH]c2nc(Sc3cnc4cccnc4c3)nc(N3C[C@H](N)[C@H](C(=O)NCc4cccnc4)C3)c2c1Cl [701,020] | > 64 | 2 | 4
12 | CCc1[nH]c2nc(Sc3cnc4cccnc4c3)nc(N3C[C@H](N)[C@H](C(=O)N[C@@H](CO)c4ccccc4)C3)c2c1Cl [701,021] | > 64 | 4 | 4
13 | CCc1[nH]c2nc(Sc3cnc4cccnc4c3)nc(N3C[C@@H](N)[C@@H](C(=O)N[C@@H](CO)c4ccccc4)C3)c2c1Cl [701,022] | > 64 | 2 | 4
14 | CCc1[nH]c2nc(Sc3cnc4ccc[n+]([O-])c4c3)nc(N3CC4CNC4C3)c2c1Cl (stereo not drawn) [701,025] | 16 (≈ 35.2 µM) | 2 | <=0.5
15 | CCc1[nH]c2nc(Sc3cnc4ccc[n+]([O-])c4c3)nc(N3CC4CCNC4C3)c2c1Cl (stereo not drawn) [701,026] | 8 (≈ 17.1 µM) | 1 | <=0.5
16 | CCc1[nH]c2nc(Sc3cnc4ccc[n+]([O-])c4c3)nc(N3CC(O)C3)c2c1Cl [701,027] | > 64 | 1 | <=0.5
17 | CCNC(=O)NC1C2CN(c3nc(Sc4cnc5cccnc5c4)nc4[nH]c(CC)c(Cl)c34)CC21 (stereo not drawn) [701,028] | > 64 | <=0.5 | <=0.5
18 | CCc1[nH]c2nc(Oc3ccc4nccnc4c3)nc(N3CCOCC3)c2c1Cl [701,029] | > 64 | 4 | 2
19 | CCc1[nH]c2nc(Oc3cnc4c(c3)ncn4C)nc(Oc3ccc4nccnc4c3)c2c1Br [701,030] | > 64 | <=0.5 | <=0.5
20 | CCc1[nH]c2nc(Oc3cncc(C#N)c3)nc(N3CCOCC3)c2c1Cl [701,031] | > 64 | 2 | <=0.5
21 | CCc1[nH]c2nc(Oc3cnc4c(c3)ncn4C)nc(N3CC[C@@H](NC(C)=O)C3)c2c1Br [701,032] | > 64 | 8 | 8
22 | CCc1[nH]c2nc(Oc3cnc4c(c3)ncn4C)nc(N3CC[C@@H](N)C3)c2c1Cl [701,033] | > 64 | >64 | >64
23 | CCc1[nH]c2nc(Oc3cnc4c(c3)ncn4C)nc(N3CC[C@@H](NC(C)=O)C3)c2c1Cl [701,034] | > 64 | 4 | 4
24 | CCc1[nH]c2nc(Sc3cnc4ccc[n+]([O-])c4c3)nc(N(C)CCNC)c2c1Cl [701,037] | > 64 | 16 | 8
25 | CCc1[nH]c2nc(Sc3cnc4ccc[n+]([O-])c4c3)nc(N3CC4(CNC4)C3)c2c1Cl [701,038] | 16 (≈ 35.2 µM) | 32 | 8
26 | CCc1[nH]c2nc(Oc3cncc(OC)c3)nc(N3CC4C(N)C4C3)c2c1Cl (stereo not drawn) [701,041] | > 32 | 16 | 8

Second part, the compound after the results:

Row | MIC EC8 [1] [µg/mL] | MIC Spn52 [2] | MIC, SA [3] | Structure (SMILES)
27 | > 64 | >64 | 4 | CCc1[nH]c2nc(Sc3ccc(/C=C/C(=O)O)c(F)c3)nc(N3CC[C@@H](N)C3)c2c1Cl [701,002]
28 | > 64 | >64 | 32 | CCc1[nH]c2nc(Sc3cnc4cccnc4c3)nc(N3C[C@H](C(=O)NC4CNC4)[C@@H](N)C3)c2c1Cl [701,004]
29 | 16 (≈ 37.6 µM) | <=0.5 | <=0.5 | CCc1[nH]c2nc(Sc3ccc4nccnc4c3)nc(N3CC[C@@H](N)C3)c2c1Cl [701,005]
30 | 32 (≈ 64.5 µM) | 8 | 4 | CCc1[nH]c2nc(Sc3ccc4nc(N5CC(N)C5)cnc4c3)nc(N3CC[C@@H](N)C3)c2c1Cl [701,014]
31 | > 64 | 2 | <=0.5 | CCc1[nH]c2nc(Sc3cc(C(=O)NOC)c4ncccc4c3)nc(N3CC[C@@H](N)C3)c2c1Cl [701,015]
32 | > 64 | >64 | >64 | CCc1[nH]c2nc(Sc3cnc4cccnc4c3)nc(N3C[C@H](N)[C@H](C(=O)N4CC(N)C4)C3)c2c1Cl [701,016]
33 | > 64 | 1 | 2 | CCc1[nH]c2nc(Sc3cnc4cccnc4c3)nc(N3C[C@H](N)[C@H](C(=O)NCC(C)C)C3)c2c1Cl [701,017]
34 | > 64 | 16 | >64 | CCc1[nH]c2nc(Sc3cnc4cccnc4c3)nc(N3C[C@H](N)[C@H](C(=O)NCC(C)O)C3)c2c1Cl (stereo partly drawn) [701,018]
35 | > 64 | >64 | >64 | CCc1[nH]c2nc(Sc3cnc4cccnc4c3)nc(N3C[C@H](N)[C@H](C(=O)N4CC[C@@H](N)C4)C3)c2c1Cl [701,023]
36 | > 64 | 2 | 2 | CCc1[nH]c2nc(Sc3cnc4cccnc4c3)nc(N3C[C@H](N)[C@H](C(=O)Nc4nccs4)C3)c2c1Cl [701,024]
37 | > 64 | <=0.5 | <=0.5 | CCOC(=O)NCC1CCN(c2nc(Sc3cnc4cccnc4c3)nc3[nH]c(CC)c(Cl)c23)C1 (stereo not drawn) [701,035]
38 | 16 (≈ 37.4 µM) | 2 | <=0.5 | CCc1[nH]c2nc(Sc3cnc4ccc[n+]([O-])c4c3)nc(N3CC(N)C3)c2c1Cl [701,036]
39 | > 64 | 8 | 8 | CCc1[nH]c2nc(Sc3ccc4oc(C)nc4c3)nc(N3CC[C@@H](N)C3)c2c1Cl [701,039]
40 | 32 (≈ 67.9 µM) | 4 | <=0.5 | CCc1[nH]c2nc(Sc3ccc4c(OC)cc[n+]([O-])c4c3)nc(N3CC[C@@H](N)C3)c2c1Cl [701,040]
41 | > 64 | 1 | <=0.5 | CCc1[nH]c2nc(Sc3cnc4cccnc4c3)nc(N3CCC(CNS(C)(=O)=O)C3)c2c1Cl (stereo not drawn) [701,042]
42 | > 64 | >64 | 1 | CCOC(=O)C(=O)NCC1CCN(c2nc(Sc3cnc4cccnc4c3)nc3[nH]c(CC)c(Cl)c23)C1 (stereo not drawn) [701,043]
43 | > 64 | 1 | <=0.5 | CCc1[nH]c2nc(Sc3cnc4cccnc4c3)nc(N3CCC(CNC(C)=O)C3)c2c1Cl (stereo not drawn) [701,044]
